# Experimental data as given in patent US20250144101A1, “LYSOSOMAL DYSFUNCTION IN NEUROLOGICAL AND PSYCHIATRIC DISORDERS” (The Johns Hopkins University, priority 2022, published 2025).
# How the values were obtained:
# PLA2G4A = test: RNA-sequencing in iPS cell-derived neurons: PLA2G4A expression; format: cell-based; conditions: WT and CLN3 KO human iPS cell-derived neurons, treated 2 weeks vs mock, FIG. 5A
# Source text: (§1) RNA-sequencing in iPS cell-derived neurons: Cells were differentiated from iPS cells and treated either with 0.1% DMSO or Compound A for 2 weeks. RNAs were extracted using RNeasy Mini Kit (QIAGEN). The libraries for RNA-sequencing were constructed by SMART-Seq v4 Ultra Low Input RNA Kit (Takara bio).
# [1] = system: lymphoblasts from BD patients with a Cln3 mutation; test: LAMP1 staining of BD/JNCL patient lymphoblasts; format: cell-based, human
# Protocol: (§2) LAMP1 staining: Lymphoblasts were fixed with methanol and incubated overnight at 4° C. with anti-human LAMP1 antibody (1:400, Cell Signaling Technology) followed by secondary antibody (Alexa Fluor 488 donkey anti-rabbit IgG, 1:1000, Thermo Fisher Scientific). Neuronal cells differentiated from iPS cells were fixed with 4% paraformaldehyde (PFA) and incubated overnight at 4° C. with anti-human LAMP1 antibody (1:400, Cell Signaling Technology) followed by a secondary antibody (Alexa Fluor 488 donkey anti-rabbit IgG, 1:1000, Thermo Fisher Scientific). White blood cells from mice were fixed with methanol and incubated overnight at 4° C. with LAMP1 antibody (1:1000, Abcam) followed by a secondary antibody (Alexa Fluor 488 donkey anti-rabbit IgG, 1:1000, Thermo Fisher Scientific). KEYENCE BZ-X710 and BX-Z analyzer software were used for imaging quantification.
# [2] = system: lymphoblasts from BD patients with a Cln3 mutation; test: Cellular autofluorescence (AF) in BD/JNCL patient lymphoblasts by flow cytometry; format: cell-based, human
# Protocol: Autofluorescence (AF): AF levels in human blood cells were measured in 30,000 cells using flow cytometry at FL-1 with the BD FACSCalibur™ (BD Biosciences) (Excitation; 488 nm, Emission; 530±15 nm) (for FIGS. 1A-1C). AF levels in lymphoblasts were measured in 20,000 cells using flow cytometry with Attune Flow Cytometer (Thermo Fisher Scientific) (Excitation; 488 nm, Emission; 530 nm) (for FIGS. 2A and 2B).
# Cln3−/− mice [3] = test: Novel object recognition test, BD animal model; format: in vivo; conditions: CLN3 knockout (KO) mice, FIG. 4D
# Protocol: Novel Object Recognition Test (NORT): The test was carried out according to the previously validated method (Hatayama et al., Neuroscience 265 (2014) 217-25). All mice were habituated for 1 hour to the NORT arena one day before the test day. On the day of testing, the mice were given two 5-min trials (T1 with two identical objects and T2 with a familiar object from T1 and a novel object), separated by 1-hour interval. The discrimination index (DI) ((time spent exploring the novel object−time spent exploring the familiar object)/total exploration time) was calculated for T2 trials.
# PLA2G7 = test: RNA-sequencing in iPS cell-derived neurons: PLA2G7 expression; format: cell-based; conditions: WT and CLN3 KO human iPS cell-derived neurons, treated 2 weeks vs mock, FIG. 5B
# Source text: as §1
# Cln3−/− mice [4] = test: LAMP1 staining of peripheral white blood cells, BD animal model; format: in vivo; conditions: CLN3 knockout (KO) mice, FIG. 4C
# Protocol: as §2
# Isolation of white blood cells from peripheral blood of mice: 20 μL of blood of mice was lysed with ACK lysing buffer (Lonza) for 1 min. After washing, cells were resuspended with RPMI.
# [5] = system: animal model of GM1 gangliosidosis; conditions: cited from earlier work
# α-galactosidase A = conditions: cells from patients with Fabry disease; cited from earlier work
# [6] = system: Neuronal cells differentiated from Cln3 mutant iPSCs; test: LAMP1 staining of neuronal cells differentiated from Cln3 mutant iPSCs; format: cell-based, human; conditions: 0.4-10 μM, n=2-3, FIG. 2D
# Protocol: as §2
smiles,measurement,setting,value
"CC(C)CN1CCCn2c1nc1ccc(NCCN(C)C)cc1c2=O [Compound A, 8-{[2-(dimethylamino)ethyl]amino}-1-(2-methylpropyl)-1,2,3,4-tetrahydro-6H-pyrimido[2,1-b]quinazolin-6-one]",expression of PLA2G4A,PLA2G4A,significantly influenced the expression of PLA2 genes
same,elevated LAMP1 signal in Batten disease (BD) lymphoblasts,[1]; FIG. 4B,amelioration of elevated LAMP1 signal
same,elevated autofluorescence (AF) in Batten disease (BD) lymphoblasts,[2]; FIG. 4A,amelioration of elevated autofluorescence (AF)
same,cognitive deficits (novel object recognition test) of BD mice,Cln3−/− mice [3],Amelioration of cognitive deficits
same,expression of PLA2G7,PLA2G7,significantly influenced the expression of PLA2 genes
same,elevated LAMP1 signal in peripheral white blood cells of BD mice,Cln3−/− mice [4],amelioration of elevated LAMP1 signal
"CCCCCCCCNC1C=C(CO)C(O)C(O)C1O (stereo not drawn) [N-octyl 4-epi-β-valienamine (NOEV), N-octyl 4-epi-β-valienamine]",residual activity in the brain,[5],increased residual activity in the brain
"OC[C@H]1NC[C@H](O)[C@@H](O)[C@H]1O [1-deoxygalactonojirimycin (DGJ), 1-deoxygalactonojirimycin]",residual α-galactosidase A activity,α-galactosidase A,enhance residual α-galactosidase A activity
CC(C)c1nc(N(C)S(C)(=O)=O)nc(-c2ccc(F)cc2)c1/C=C/[C@@H](O)C[C@@H](O)CC(=O)O [rosuvastatin],anti-LAMP1 staining of JNCL patient lymphoblasts,"[1]; 10 μM, n=3, FIG. 2C",decreased it
same,lysosomal deficits found in BD lymphoblasts (LAMP1 expression and AF levels),"[1]; cites FIGS. 2C, 2D",ameliorate the lysosomal deficits
same,elevated autofluorescence (AF) of JNCL patient lymphoblasts,"[2]; 10 μM, FIG. 2B",decreased it
same,anti-LAMP1 staining of neuronal cells differentiated from Cln3 mutant iPSCs,[6],dose-dependently decreased it
